System: 84 genes related to inflammatory and autoimmune processes
Test: Mouse Inflammatory Response and Autoimmunity PCR Array, whole brain
Format: in vivo
Description: Frozen, pulverized whole brain tissue was processed for RNA extraction from a separate cohort of treated and untreated injured animals on days 1 post-injury(CN-105, n = 4; vehicle, n = 3; Control(sham-operated), n = 3). Total RNA was extracted from frozen, pulverized whole brain tissue using RNeasy Lipid Tissue Mini Kit(Qiagen, Valencia, CA). RNA quantity and quality was assessed with the NanoDrop ND-1000 spectrophotometer(NanoDrop Technologies, Inc., Wilmington, DE) and by agarose gel electrophoresis. Only samples with a 260/280 ratio between 1.9–2.1, and a 260/230 ratio greater than 2.0, were further processed. First strand complementary DNA(cDNA) was generated from 2 μg total RNA using the RT[2] First strand kit(SABiosciences, Frederick, MD.)
Gene expression was measured using the Mouse Inflammatory Response and Autoimmunity PCR Array(SABiosciences, Frederick, MD), which profiles the expression of 84 genes related to inflammatory and autoimmune processes. RT-PCR was performed according to manufacturer’s instructions Quality of the cDNA and PCR efficiency was verified by housekeeping genes and RT-PCR controls included in the PCR Array.
Raw RT-PCR data were analyzed using the Web-Based PCR Array Data Analysis software(SABiosciences). ΔCt values and ΔΔCt - based fold-change were calculated from raw threshold cycle data, using beta-actin and glyceraldehyde 3-phosphate dehydrogenase(GAPDH) as internal standards for normalization. Fold changes were then normalized against sham-operated controls.

[1] = TBI + CN-105 0.05 mg/kg iv 2 h post injury, brain 24 h
[2] = TBI CN-105 vs TBI vehicle, brain 24 h post TBI
[3] = TBI CN-105 vs sham vehicle, brain 24 h

Ac-VSRRR-amide [CN-105]
Bcl6 ΔCt value, TBI-CN-105 [1]: 5.7E − 01
C3ar1 ΔCt value, TBI-CN-105 [1]: 1.2E − 01
C3 ΔCt value, TBI-CN-105 [1]: 1.9E − 03
C4b ΔCt value, TBI-CN-105 [1]: 5.9E − 01
Ccl1 ΔCt value, TBI-CN-105 [1]: 9.1E − 01
Ccl2 ΔCt value, TBI-CN-105 [1]: 2.5E − 02
Ccl3 ΔCt value, TBI-CN-105 [1]: 8.9E − 03
Ccl4 ΔCt value, TBI-CN-105 [1]: 1.2E − 02
Ccl5 ΔCt value, TBI-CN-105 [1]: 3.4E − 03
Ccl7 ΔCt value, TBI-CN-105 [1]: 3.7E − 03
Ccl8 ΔCt value, TBI-CN-105 [1]: 4.2E − 03
Ccl11 ΔCt value, TBI-CN-105 [1]: 1.8E − 01
Ccl12 ΔCt value, TBI-CN-105 [1]: 1.3E − 02
Ccl17 ΔCt value, TBI-CN-105 [1]: 1.0E − 03
Ccl19 ΔCt value, TBI-CN-105 [1]: 3.4E − 03
Ccl20 ΔCt value, TBI-CN-105 [1]: 7.9E − 02
Ccl22 ΔCt value, TBI-CN-105 [1]: 2.2E − 02
Ccl24 ΔCt value, TBI-CN-105 [1]: 5.1E − 03
Ccl25 ΔCt value, TBI-CN-105 [1]: 9.5E − 02
Ccr1 ΔCt value, TBI-CN-105 [1]: 3.0E − 04
Ccr2 ΔCt value, TBI-CN-105 [1]: 1.5E − 03
Ccr3 ΔCt value, TBI-CN-105 [1]: 1.1E − 01
Ccr4 ΔCt value, TBI-CN-105 [1]: 3.1E − 02
Ccr7 ΔCt value, TBI-CN-105 [1]: 3.4E − 02
Cd40lg ΔCt value, TBI-CN-105 [1]: 4.2E − 03
Cd40 ΔCt value, TBI-CN-105 [1]: 2.1E − 02
Cebpb ΔCt value, TBI-CN-105 [1]: 2.4E − 01
Crp ΔCt value, TBI-CN-105 [1]: 7.1E − 04
Csf1 ΔCt value, TBI-CN-105 [1]: 1.2E − 02
Cxcl1 ΔCt value, TBI-CN-105 [1]: 1.8E − 03
Cxcl2 ΔCt value, TBI-CN-105 [1]: 1.7E − 03
Cxcl3 ΔCt value, TBI-CN-105 [1]: 1.6E + 00
Cxcl5 ΔCt value, TBI-CN-105 [1]: 1.4E + 00
Cxcl9 ΔCt value, TBI-CN-105 [1]: 2.2E − 03
Cxcl10 ΔCt value, TBI-CN-105 [1]: 5.3E − 04
Cxcl11 ΔCt value, TBI-CN-105 [1]: 8.8E − 03
Cxcr4 ΔCt value, TBI-CN-105 [1]: 9.0E − 02
Fasl ΔCt value, TBI-CN-105 [1]: 6.7E − 04
Flt3l ΔCt value, TBI-CN-105 [1]: 7.1E − 04
Fos ΔCt value, TBI-CN-105 [1]: 1.7E − 01
Hdac4 ΔCt value, TBI-CN-105 [1]: 8.3E − 01
Ifng ΔCt value, TBI-CN-105 [1]: 4.3E − 03
Il1a ΔCt value, TBI-CN-105 [1]: 5.4E − 02
Il1b ΔCt value, TBI-CN-105 [1]: 4.6E − 01
Il1f10 ΔCt value, TBI-CN-105 [1]: 5.5E − 03
Il1r1 ΔCt value, TBI-CN-105 [1]: 7.5E − 04
Il1rap ΔCt value, TBI-CN-105 [1]: 8.2E − 04
Il1rn ΔCt value, TBI-CN-105 [1]: 1.7E − 03
Il6ra ΔCt value, TBI-CN-105 [1]: 1.6E − 01
Il6 ΔCt value, TBI-CN-105 [1]: 1.8E − 03
Il7 ΔCt value, TBI-CN-105 [1]: 5.9E − 01
Il8ra ΔCt value, TBI-CN-105 [1]: 2.6E − 03
Il8rb ΔCt value, TBI-CN-105 [1]: 5.4E − 03
Il9 ΔCt value, TBI-CN-105 [1]: 1.4E − 02
Il10rb ΔCt value, TBI-CN-105 [1]: 2.2E − 02
Il10 ΔCt value, TBI-CN-105 [1]: 1.6E − 03
Il18rap ΔCt value, TBI-CN-105 [1]: 6.6E − 03
Il18 ΔCt value, TBI-CN-105 [1]: 9.6E − 03
Il22ra2 ΔCt value, TBI-CN-105 [1]: 8.2E − 02
Il22 ΔCt value, TBI-CN-105 [1]: 3.4E − 03
Il23a ΔCt value, TBI-CN-105 [1]: 2.3E − 02
Il23r ΔCt value, TBI-CN-105 [1]: 8.0E − 04
Itgb2 ΔCt value, TBI-CN-105 [1]: 5.3E − 02
Kng1 ΔCt value, TBI-CN-105 [1]: 8.5E − 03
Lta ΔCt value, TBI-CN-105 [1]: 1.1E − 01
Ltb ΔCt value, TBI-CN-105 [1]: 3.9E − 02
Ly96 ΔCt value, TBI-CN-105 [1]: 7.7E − 02
Myd88 ΔCt value, TBI-CN-105 [1]: 6.6E − 03
Nfatc3 ΔCt value, TBI-CN-105 [1]: 3.2E + 00
Nfkb1 ΔCt value, TBI-CN-105 [1]: 5.3E − 03
Nos2 ΔCt value, TBI-CN-105 [1]: 1.6E − 01
Nr3c1 ΔCt value, TBI-CN-105 [1]: 1.2E − 02
Ripk2 ΔCt value, TBI-CN-105 [1]: 2.1E − 01
Tirap ΔCt value, TBI-CN-105 [1]: 5.3E − 02
Tlr1 ΔCt value, TBI-CN-105 [1]: 7.4E − 03
Tlr2 ΔCt value, TBI-CN-105 [1]: 9.1E − 03
Tlr3 ΔCt value, TBI-CN-105 [1]: 5.8E − 02
Tlr4 ΔCt value, TBI-CN-105 [1]: 2.0E − 02
Tlr5 ΔCt value, TBI-CN-105 [1]: 1.7E − 03
Tlr6 ΔCt value, TBI-CN-105 [1]: 7.0E − 03
Tlr7 ΔCt value, TBI-CN-105 [1]: 9.1E − 01
Tnf ΔCt value, TBI-CN-105 [1]: 3.8E − 02
Tnfsf14 ΔCt value, TBI-CN-105 [1]: 9.0E − 03
Tollip ΔCt value, TBI-CN-105 [1]: 5.1E − 02
Bcl6 Fold Change [2]: 921
C3 Fold Change [2]: 1.5
C3ar1 Fold Change [2]: −3.1
C4b Fold Change [2]: −1.1
Ccl1 Fold Change [2]: 1.5
Ccl2 Fold Change [2]: −2.6
Ccl3 Fold Change [2]: 1.5
Ccl4 Fold Change [2]: −2.6
Ccl5 Fold Change [2]: −1.6
Ccl7 Fold Change [2]: −1.2
Ccl8 Fold Change [2]: 31.2
Ccl11 Fold Change [2]: −3.6
Ccl12 Fold Change [2]: 64.2
Ccl17 Fold Change [2]: −1.7
Ccl19 Fold Change [2]: −5.2
Ccl20 Fold Change [2]: −1.5
Ccl22 Fold Change [2]: 60.2
Ccl24 Fold Change [2]: −14.8
Ccl25 Fold Change [2]: −1.2
Ccr1 Fold Change [2]: 2.3
Ccr2 Fold Change [2]: −48.3
Ccr3 Fold Change [2]: 5.4
Ccr4 Fold Change [2]: 1.2
Ccr7 Fold Change [2]: 1.2
Cd40 Fold Change [2]: −7.8
Cd40lg Fold Change [2]: −1.2
Cebpb Fold Change [2]: −1.5
Crp Fold Change [2]: 1.2
Csf1 Fold Change [2]: −2.0
Cxcl1 Fold Change [2]: −8.3
Cxcl2 Fold Change [2]: 4.8
Cxcl3 Fold Change [2]: 2.4
Cxcl5 Fold Change [2]: 6257
Cxcl9 Fold Change [2]: −70.3
Cxcl10 Fold Change [2]: −47.9
Cxcl11 Fold Change [2]: 2.6
Cxcr4 Fold Change [2]: −7.3
Fasl Fold Change [2]: −2.0
Flt3l Fold Change [2]: −1.4
Fos Fold Change [2]: −1.2
Hdac4 Fold Change [2]: −1.1
Ifng Fold Change [2]: −12.9
Il1a Fold Change [2]: −10.1
Il1b Fold Change [2]: −1.6
Il1f10 Fold Change [2]: 3.8
Il1r1 Fold Change [2]: 3.5
Il1rap Fold Change [2]: −2.2
Il1rn Fold Change [2]: −1.6
Il6 Fold Change [2]: −29.8
Il6ra Fold Change [2]: −2.9
Il7 Fold Change [2]: 515
Il8ra Fold Change [2]: 1.2
Il8rb Fold Change [2]: 1.1
Il9 Fold Change [2]: 1.2
Il10 Fold Change [2]: −9.3
Il10rb Fold Change [2]: 2.6
Il18 Fold Change [2]: 7.2
Il18rap Fold Change [2]: −3.6
Il22 Fold Change [2]: −1.7
Il22ra2 Fold Change [2]: 10895
Il23a Fold Change [2]: 18.5
Il23r Fold Change [2]: 5.8
Itgb2 Fold Change [2]: −1.5
Kng1 Fold Change [2]: −1.1
Lta Fold Change [2]: −1.2
Ltb Fold Change [2]: 3.6
Ly96 Fold Change [2]: 61.2
Myd88 Fold Change [2]: −273
Nfatc3 Fold Change [2]: 10044
Nfkb1 Fold Change [2]: −16.6
Nr3c1 Fold Change [2]: 13.7
Ripk2 Fold Change [2]: −1.1
Tirap Fold Change [2]: −1.5
Tlr1 Fold Change [2]: −1.4
Tlr2 Fold Change [2]: 1.0
Tlr3 Fold Change [2]: 1.3
Tlr4 Fold Change [2]: −9.0
Tlr5 Fold Change [2]: 2.5
Tlr6 Fold Change [2]: −170
Tlr7 Fold Change [2]: 19.0
Tnf Fold Change [2]: 6.9
Tnfsf14 Fold Change [2]: −2.8
Tollip Fold Change [2]: −2.9
Bcl6 fold change TBI-CN-105/S-v [3]: 11.2
C3ar1 fold change TBI-CN-105/S-v [3]: 34.9
C3 fold change TBI-CN-105/S-v [3]: 4.6
C4b fold change TBI-CN-105/S-v [3]: 163.3
Ccl2 fold change TBI-CN-105/S-v [3]: 42.3
Ccl3 fold change TBI-CN-105/S-v [3]: 17.7
Ccl4 fold change TBI-CN-105/S-v [3]: 32.3
Ccl5 fold change TBI-CN-105/S-v [3]: 3.8
Ccl7 fold change TBI-CN-105/S-v [3]: 2.9
Ccl8 fold change TBI-CN-105/S-v [3]: 5.6
Ccl11 fold change TBI-CN-105/S-v [3]: 2253.1
Ccl12 fold change TBI-CN-105/S-v [3]: 3.7
Ccl17 fold change TBI-CN-105/S-v [3]: −2.6
Ccl19 fold change TBI-CN-105/S-v [3]: −5.8
Ccl20 fold change TBI-CN-105/S-v [3]: 3086.8
Ccl22 fold change TBI-CN-105/S-v [3]: 176.2
Ccl24 fold change TBI-CN-105/S-v [3]: 159.1
Ccl25 fold change TBI-CN-105/S-v [3]: 16.9
Ccr1 fold change TBI-CN-105/S-v [3]: −2.5
Ccr2 fold change TBI-CN-105/S-v [3]: 5.6
Ccr3 fold change TBI-CN-105/S-v [3]: 66.6
Ccr4 fold change TBI-CN-105/S-v [3]: 7945.9
Ccr7 fold change TBI-CN-105/S-v [3]: 283.2
Cd40 fold change TBI-CN-105/S-v [3]: 38.8
Cebpb fold change TBI-CN-105/S-v [3]: 3.5
Csf1 fold change TBI-CN-105/S-v [3]: 1.1
Cxcl1 fold change TBI-CN-105/S-v [3]: 29.4
Cxcl2 fold change TBI-CN-105/S-v [3]: 25.5
Cxcl3 fold change TBI-CN-105/S-v [3]: 54032.0
Cxcl5 fold change TBI-CN-105/S-v [3]: 957.4
Cxcl9 fold change TBI-CN-105/S-v [3]: 32.2
Cxcl10 fold change TBI-CN-105/S-v [3]: −1.7
Cxcl11 fold change TBI-CN-105/S-v [3]: 372.3
Cxcr4 fold change TBI-CN-105/S-v [3]: 21.0
Fasl fold change TBI-CN-105/S-v [3]: 3.2
Flt3l fold change TBI-CN-105/S-v [3]: −2.8
